Key:
Format in all cases: biochemical
Mcm467 = biological target: T1, Mcm467 (Saccharomyces cerevisiae, UniProt P30665+P38132+P53091); experiment: Steady-state ATP hydrolysis by Mcm467; details: 1 mM compound, 100 nM hexamer
T1 construct: made in house; host or cells: baculovirus-infected insect cells

pUC19 = experiment: DNA intercalation assay (Topo I-relaxed plasmid); details: 1 mM inhibitor added after plasmid relaxation (Figure 3C)
Text: To examine this model, we tested our inhibitors in a standard topoisomerase assay. The rationale of this assay is that intercalating compounds will introduce supercoils into a fully relaxed plasmid. Topo I will remove these introduced supercoils, but after quenching and gel electrophoresis the intercalator will diffuse away and produce a detectable compensatory supercoiling increase.

T4 gp41 = biological target: T2, T4 gp41 (Enterobacteria phage T4, UniProt P04530); experiment: T4 gp41 helicase assay; details: 1 mM, Figure S3
T2 sequence (P04530 1-475): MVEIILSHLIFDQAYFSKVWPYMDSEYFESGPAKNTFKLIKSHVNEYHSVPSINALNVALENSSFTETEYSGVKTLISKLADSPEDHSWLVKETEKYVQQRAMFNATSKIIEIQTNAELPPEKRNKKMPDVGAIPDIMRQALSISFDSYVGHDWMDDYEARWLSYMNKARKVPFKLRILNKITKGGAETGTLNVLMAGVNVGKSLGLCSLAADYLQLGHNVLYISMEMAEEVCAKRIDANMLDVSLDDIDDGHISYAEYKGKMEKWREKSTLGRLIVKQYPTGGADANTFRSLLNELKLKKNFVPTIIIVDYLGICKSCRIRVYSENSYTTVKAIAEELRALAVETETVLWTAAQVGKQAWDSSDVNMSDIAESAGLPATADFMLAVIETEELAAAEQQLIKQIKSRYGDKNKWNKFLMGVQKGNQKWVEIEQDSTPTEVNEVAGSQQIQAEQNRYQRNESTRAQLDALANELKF
Procedure: Helicase assays were performed essentially as described. Synthetic replication forks were prepared by annealing oligos 233 and 235 [IDT (Coralville), oligo 233 5′(T)40[…]; oligo 235 5′ […](T)40] and then filling in the recessed 3′-end with [α32P]dATP and unlabelled dNTPs using Klenow Fragment. Briefly, reactions ([…]) were performed in 1× helicase assay buffer [20 mM Tris/HCl (pH 7.5), 10 mM MgOAc, 20% (v/v) glycerol, 100 μM EDTA and 5 mM DTT (dithiothreitol)] and contained a final concentration of 1 nM fork substrate, 5 mM ATP, 40 mM creatine phosphate, […] creatine kinase, 33 μg/ml BSA. Reactions containing Mcm2-7 and Mcm467 were supplemented with 200 mM potassium glutamate. Reactions containing SsoMcm were incubated at 65°C, those containing T4 gp41 were incubated for 30 min at 37°C, and all other reactions were incubated at 37°C for 1 h. The products were separated by 10% (w/v) native PAGE, the resulting gels dried and the radioactivity quantified using a Fuji FLA-5100 phosphoimager. Irrespective of the protein used, all helicase assays contained equal molar helicase concentrations (100 nM, assuming in all cases that the active helicase form is hexameric). Steady-state ATP hydrolysis was assayed as published. In short, reactions were set up essentially as in the helicase assay, with minor exceptions. A non-radiolabelled DNA fork was used, helicase concentration was 100 nM (hexamer) the total ATP concentration was 500 μM and included ~0.5 μCi of [α32P]ATP, and the ATP regeneration system was omitted. Reactions were incubated for 1 h at 37°C and stopped by the addition of SDS. ATP was separated from ADP by PEI (polyethyleneimine) thin layer chromatography, and the ratio of ATP:ADP was quantified using a Fuji FLA-5100 phosphoimager. Based on our prior work, conditions were established to ensure that the results shown are within the linear range of the assay. Protein–ssDNA binding was determined with a double filter-binding assay using an ssDNA probe (oligo 826, 5′[…]) that was 5′-radiolabelled using T4 polynucleotide kinase and [γ32P]ATP [16]. For the double filter-binding assay, the helicase concentration was 150 nM (hexamer) and the ssDNA concentration was 4 nM. For all biochemical assays, helicases were preincubated with inhibitors for 20 min at 37°C unless otherwise indicated. […]
against different helicases
Representative helicase activity assays in the presence of the indicated inhibitor were tested, quantiﬁed and standardized as described in the legend to F igures 2 (A) and (B). All helicases were assayed at 100 nM
ﬁnal concentration (hexamer) with inhibitor preincubation prior to ATP […]
F igure S3 Ciproﬂoxacin poor ly inhibits hexameric helicases un- […]
All inhibitors were used at 1 mM ﬁnal concentration. […]

T1 sequence (P30665 whole entry): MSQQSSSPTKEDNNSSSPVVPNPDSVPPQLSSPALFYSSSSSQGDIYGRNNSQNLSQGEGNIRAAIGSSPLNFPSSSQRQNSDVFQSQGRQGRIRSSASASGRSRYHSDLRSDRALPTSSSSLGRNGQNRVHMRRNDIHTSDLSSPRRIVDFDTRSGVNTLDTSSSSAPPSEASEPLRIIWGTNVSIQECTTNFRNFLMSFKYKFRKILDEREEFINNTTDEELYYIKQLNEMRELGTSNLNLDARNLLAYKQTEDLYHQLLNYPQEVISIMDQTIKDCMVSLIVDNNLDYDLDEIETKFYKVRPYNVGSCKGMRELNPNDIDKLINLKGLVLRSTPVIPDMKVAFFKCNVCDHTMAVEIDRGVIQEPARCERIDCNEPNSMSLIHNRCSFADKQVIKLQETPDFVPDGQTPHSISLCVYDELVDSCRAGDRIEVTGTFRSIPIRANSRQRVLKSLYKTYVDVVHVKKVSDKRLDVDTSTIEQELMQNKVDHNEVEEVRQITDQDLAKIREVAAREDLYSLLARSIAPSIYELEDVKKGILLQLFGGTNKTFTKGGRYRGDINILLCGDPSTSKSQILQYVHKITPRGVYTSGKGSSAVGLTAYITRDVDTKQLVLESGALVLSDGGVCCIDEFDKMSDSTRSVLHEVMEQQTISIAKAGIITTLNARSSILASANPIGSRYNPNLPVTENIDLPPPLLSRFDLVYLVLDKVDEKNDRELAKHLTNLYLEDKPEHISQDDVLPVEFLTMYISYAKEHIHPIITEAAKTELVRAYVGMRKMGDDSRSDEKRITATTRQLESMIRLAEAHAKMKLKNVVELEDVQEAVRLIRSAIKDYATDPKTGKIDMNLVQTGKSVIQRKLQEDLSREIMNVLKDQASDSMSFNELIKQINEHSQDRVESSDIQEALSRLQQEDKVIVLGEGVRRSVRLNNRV
T1 sequence (P53091 whole entry): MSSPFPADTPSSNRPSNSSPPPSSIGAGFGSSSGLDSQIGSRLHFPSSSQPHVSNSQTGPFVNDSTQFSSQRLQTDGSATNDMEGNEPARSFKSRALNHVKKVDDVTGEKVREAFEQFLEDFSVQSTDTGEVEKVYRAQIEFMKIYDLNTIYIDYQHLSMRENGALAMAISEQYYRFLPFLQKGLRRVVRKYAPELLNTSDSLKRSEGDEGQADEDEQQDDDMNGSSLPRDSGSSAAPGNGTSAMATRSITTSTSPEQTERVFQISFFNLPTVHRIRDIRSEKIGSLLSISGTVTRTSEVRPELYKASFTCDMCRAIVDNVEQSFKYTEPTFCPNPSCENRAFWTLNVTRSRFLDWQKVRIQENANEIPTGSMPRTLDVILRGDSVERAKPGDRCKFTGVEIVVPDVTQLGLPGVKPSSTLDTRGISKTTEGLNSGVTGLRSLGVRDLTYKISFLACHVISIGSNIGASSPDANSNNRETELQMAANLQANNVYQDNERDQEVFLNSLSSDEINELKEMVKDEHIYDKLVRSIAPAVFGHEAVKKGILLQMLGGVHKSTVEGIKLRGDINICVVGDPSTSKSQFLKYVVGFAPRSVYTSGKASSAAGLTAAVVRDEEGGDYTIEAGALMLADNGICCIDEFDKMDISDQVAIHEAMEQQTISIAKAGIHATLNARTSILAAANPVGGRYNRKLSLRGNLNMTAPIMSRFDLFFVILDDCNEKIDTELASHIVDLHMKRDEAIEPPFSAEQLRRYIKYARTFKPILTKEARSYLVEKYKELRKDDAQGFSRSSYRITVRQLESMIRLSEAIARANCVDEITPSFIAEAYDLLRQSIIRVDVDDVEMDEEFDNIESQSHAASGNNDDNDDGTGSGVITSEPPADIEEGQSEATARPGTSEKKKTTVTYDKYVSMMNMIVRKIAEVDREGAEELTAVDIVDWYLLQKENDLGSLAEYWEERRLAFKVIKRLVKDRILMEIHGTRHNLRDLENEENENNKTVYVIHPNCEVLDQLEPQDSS
T1 sequence (P38132 whole entry): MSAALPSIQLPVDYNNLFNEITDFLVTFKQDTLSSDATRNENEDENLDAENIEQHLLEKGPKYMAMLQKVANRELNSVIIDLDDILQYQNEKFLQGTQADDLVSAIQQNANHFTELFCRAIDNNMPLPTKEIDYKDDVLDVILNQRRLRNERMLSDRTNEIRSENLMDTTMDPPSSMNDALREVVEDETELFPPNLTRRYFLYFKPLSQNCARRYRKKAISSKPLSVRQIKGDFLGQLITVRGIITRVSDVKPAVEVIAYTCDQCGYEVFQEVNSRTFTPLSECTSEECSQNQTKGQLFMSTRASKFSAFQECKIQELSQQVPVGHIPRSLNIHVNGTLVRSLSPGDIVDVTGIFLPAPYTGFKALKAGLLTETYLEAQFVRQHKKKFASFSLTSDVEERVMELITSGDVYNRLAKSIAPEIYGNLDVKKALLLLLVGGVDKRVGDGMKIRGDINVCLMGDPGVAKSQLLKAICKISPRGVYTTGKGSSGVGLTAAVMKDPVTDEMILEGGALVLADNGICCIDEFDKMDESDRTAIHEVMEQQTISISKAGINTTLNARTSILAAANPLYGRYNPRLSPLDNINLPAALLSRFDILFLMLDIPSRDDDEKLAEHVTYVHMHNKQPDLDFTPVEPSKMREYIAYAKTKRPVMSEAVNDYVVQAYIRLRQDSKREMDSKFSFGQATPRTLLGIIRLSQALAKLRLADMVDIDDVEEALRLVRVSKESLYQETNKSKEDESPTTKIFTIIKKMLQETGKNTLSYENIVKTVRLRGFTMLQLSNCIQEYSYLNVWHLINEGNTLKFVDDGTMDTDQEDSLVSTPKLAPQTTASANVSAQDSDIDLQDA

O=C(O)c1cn(C2CC2)c2cc(N3CCNCC3)c(F)cc2c1=O [Ciprofloxacin, ciprofloxacin, reference compound]
effect on ATP hydrolysis of Mcm467 (Mcm467): only modest effects | DNA intercalation (pUC19): little or no intercalation | inhibition of T4 gp41 helicase (T4 gp41): none of the tested helicases were substantially inhibited
